According to ChEMBL document CHEMBL5465560, “Selectivity Literature for EUbOPEN Chemogenomic Library” (2024):

Columns and labels:
[1] = molecular target: Activin receptor type-2A (Homo sapiens) (UniProt P27037); conditions: at 10 µM
[2] = molecular target: TRAF2 and NCK-interacting protein kinase (Homo sapiens) (UniProt Q9UKE5); test: Selectivity interaction (KinomeScan (DiscoverX)) EUB0000695a TNIK; conditions: at 100 nM
[3] = molecular target: T1, Inhibitor of nuclear factor kappa-B kinase subunit epsilon (Homo sapiens) (UniProt Q14164); test: Selectivity interaction (KinomeScan (DiscoverX)) EUB0000695a IKBKE; conditions: at 100 nM
T1 sequence (whole entry): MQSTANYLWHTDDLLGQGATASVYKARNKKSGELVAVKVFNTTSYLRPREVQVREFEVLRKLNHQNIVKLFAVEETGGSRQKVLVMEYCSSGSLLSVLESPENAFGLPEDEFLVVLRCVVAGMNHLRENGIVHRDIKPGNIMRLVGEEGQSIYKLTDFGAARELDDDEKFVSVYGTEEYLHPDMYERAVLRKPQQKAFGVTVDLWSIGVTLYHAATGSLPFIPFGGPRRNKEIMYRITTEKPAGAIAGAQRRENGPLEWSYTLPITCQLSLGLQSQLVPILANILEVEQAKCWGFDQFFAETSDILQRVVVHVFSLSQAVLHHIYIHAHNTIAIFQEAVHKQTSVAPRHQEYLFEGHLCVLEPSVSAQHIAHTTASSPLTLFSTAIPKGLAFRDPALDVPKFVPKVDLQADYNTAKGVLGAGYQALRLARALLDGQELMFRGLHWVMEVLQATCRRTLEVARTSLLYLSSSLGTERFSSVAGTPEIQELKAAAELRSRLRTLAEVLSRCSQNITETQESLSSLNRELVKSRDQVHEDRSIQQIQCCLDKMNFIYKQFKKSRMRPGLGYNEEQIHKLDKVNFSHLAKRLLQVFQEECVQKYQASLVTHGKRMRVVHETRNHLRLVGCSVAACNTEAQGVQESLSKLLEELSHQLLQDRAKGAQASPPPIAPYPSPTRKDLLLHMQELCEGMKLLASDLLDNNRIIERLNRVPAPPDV

[4] = molecular target: T2, Phosphorylase b kinase gamma catalytic chain, liver/testis isoform (Homo sapiens) (UniProt P15735); test: Selectivity interaction (KinomeScan (DiscoverX)) EUB0000695a PHKG2; conditions: at 100 nM
T2 sequence (whole entry): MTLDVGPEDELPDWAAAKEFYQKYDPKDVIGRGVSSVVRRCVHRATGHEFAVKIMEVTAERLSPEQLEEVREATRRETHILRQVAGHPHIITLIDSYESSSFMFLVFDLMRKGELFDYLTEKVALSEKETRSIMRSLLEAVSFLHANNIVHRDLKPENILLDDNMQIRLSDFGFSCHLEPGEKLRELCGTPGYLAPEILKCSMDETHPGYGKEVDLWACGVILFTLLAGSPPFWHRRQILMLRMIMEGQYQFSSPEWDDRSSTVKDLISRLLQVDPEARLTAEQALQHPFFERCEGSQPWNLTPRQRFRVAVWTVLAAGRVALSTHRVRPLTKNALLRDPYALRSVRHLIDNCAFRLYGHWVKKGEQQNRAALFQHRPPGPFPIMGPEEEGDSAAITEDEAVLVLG

[5] = molecular target: Proto-oncogene tyrosine-protein kinase receptor Ret (Homo sapiens, UniProt P07949); test: Selectivity interaction (Kinase screening (Nanosyn)) EUB0000604a RET
Chain of Proto-oncogene tyrosine-protein kinase receptor Ret (P07949 whole entry): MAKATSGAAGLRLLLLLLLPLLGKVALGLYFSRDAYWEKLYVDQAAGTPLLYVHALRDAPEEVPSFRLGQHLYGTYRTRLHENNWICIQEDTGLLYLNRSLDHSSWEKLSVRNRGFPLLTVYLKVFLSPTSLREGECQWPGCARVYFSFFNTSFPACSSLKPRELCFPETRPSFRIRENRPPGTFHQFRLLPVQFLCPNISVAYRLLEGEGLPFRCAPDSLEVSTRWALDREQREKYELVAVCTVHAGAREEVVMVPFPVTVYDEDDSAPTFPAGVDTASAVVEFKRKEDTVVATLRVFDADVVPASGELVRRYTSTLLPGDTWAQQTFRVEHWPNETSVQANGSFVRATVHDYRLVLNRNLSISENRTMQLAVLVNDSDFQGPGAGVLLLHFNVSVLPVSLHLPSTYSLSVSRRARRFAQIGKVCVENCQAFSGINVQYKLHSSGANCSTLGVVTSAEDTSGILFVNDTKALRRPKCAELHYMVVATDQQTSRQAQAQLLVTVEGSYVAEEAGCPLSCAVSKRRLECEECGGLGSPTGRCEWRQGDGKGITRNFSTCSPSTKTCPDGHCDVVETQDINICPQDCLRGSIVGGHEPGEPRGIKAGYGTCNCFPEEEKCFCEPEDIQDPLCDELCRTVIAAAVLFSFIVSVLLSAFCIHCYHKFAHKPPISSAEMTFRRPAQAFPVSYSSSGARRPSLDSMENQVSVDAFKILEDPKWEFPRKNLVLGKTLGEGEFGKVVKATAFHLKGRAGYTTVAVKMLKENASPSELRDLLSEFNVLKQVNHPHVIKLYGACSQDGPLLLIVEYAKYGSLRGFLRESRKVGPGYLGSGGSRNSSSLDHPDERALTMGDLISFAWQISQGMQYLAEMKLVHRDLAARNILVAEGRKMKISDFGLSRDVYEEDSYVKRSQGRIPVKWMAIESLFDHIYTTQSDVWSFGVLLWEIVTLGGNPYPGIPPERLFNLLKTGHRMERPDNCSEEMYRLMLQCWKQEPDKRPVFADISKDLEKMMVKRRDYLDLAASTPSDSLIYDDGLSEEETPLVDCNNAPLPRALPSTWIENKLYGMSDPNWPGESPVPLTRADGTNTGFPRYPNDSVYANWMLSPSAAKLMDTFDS

[6] = molecular target: STE20-like serine/threonine-protein kinase (Homo sapiens, UniProt Q9H2G2); test: Selectivity interaction (Ambit KINOMEscan and KiNATiv profiling in Jurkat cells) EUB0000090b SLK; format: cell-based; conditions: at 1 µM
Chain of STE20-like serine/threonine-protein kinase (Q9H2G2 whole entry, looked up): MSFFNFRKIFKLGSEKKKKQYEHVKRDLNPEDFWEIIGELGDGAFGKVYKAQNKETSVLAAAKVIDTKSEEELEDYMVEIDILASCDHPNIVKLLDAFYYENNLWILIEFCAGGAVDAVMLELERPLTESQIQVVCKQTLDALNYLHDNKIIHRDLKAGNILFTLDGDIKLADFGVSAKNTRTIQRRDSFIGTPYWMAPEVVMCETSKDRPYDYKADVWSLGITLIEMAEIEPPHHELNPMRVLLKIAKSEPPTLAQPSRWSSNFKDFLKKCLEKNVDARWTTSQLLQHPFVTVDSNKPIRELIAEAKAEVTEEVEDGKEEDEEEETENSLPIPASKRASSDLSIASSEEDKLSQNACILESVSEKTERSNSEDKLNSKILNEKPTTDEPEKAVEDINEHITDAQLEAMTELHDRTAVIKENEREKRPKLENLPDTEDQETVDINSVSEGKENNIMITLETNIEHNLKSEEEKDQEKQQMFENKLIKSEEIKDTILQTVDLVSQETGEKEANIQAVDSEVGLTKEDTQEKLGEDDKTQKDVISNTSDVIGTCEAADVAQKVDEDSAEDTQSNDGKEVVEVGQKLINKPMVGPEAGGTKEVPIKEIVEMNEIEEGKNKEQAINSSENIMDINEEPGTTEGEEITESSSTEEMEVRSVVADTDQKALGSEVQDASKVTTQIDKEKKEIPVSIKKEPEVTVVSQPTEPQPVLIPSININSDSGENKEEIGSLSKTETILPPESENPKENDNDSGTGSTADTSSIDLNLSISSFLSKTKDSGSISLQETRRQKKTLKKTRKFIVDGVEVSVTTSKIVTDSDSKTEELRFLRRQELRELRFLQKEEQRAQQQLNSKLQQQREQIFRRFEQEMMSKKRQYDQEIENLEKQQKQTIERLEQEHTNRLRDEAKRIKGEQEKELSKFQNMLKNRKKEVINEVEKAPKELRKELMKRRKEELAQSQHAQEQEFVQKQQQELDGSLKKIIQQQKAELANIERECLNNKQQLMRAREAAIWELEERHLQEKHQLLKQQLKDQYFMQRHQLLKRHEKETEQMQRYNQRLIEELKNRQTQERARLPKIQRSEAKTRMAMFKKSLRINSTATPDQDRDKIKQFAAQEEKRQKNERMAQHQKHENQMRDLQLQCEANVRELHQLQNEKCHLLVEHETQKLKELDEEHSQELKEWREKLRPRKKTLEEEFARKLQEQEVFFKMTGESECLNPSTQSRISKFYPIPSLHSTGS

[7] = molecular target: T3, Ephrin type-B receptor 4 (Homo sapiens) (UniProt P54760); test: Selectivity interaction (KinomeScan (DiscoverX)) EUB0001619a EPHB4; conditions: at 1 µM
T3 sequence (whole entry): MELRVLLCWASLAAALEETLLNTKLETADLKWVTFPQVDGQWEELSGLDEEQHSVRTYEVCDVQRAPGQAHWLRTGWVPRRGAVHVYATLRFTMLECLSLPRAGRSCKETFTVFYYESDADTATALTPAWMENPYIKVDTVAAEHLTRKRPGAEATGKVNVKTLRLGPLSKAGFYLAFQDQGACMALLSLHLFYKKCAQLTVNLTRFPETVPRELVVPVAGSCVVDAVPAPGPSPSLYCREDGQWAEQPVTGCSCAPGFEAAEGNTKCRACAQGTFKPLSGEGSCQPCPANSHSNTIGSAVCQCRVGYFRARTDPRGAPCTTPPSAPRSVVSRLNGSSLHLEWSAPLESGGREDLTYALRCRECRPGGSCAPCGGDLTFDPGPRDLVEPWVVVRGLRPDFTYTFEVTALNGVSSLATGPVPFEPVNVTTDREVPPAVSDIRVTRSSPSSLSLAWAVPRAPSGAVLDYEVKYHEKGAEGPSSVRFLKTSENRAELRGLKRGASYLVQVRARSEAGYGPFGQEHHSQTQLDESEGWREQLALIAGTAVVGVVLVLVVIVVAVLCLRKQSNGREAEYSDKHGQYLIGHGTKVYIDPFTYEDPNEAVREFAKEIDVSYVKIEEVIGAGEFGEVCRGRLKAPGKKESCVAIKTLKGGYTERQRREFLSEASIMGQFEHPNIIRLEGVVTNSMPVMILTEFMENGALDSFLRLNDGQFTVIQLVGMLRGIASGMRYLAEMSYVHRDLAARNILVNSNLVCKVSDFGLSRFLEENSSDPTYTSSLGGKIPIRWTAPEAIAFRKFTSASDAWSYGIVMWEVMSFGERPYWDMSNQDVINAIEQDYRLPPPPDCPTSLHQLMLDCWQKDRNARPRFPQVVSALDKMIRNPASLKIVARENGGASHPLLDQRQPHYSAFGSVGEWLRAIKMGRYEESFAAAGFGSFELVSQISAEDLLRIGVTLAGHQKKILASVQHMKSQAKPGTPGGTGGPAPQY

Chain of TRAF2 and NCK-interacting protein kinase (Homo sapiens) (Q9UKE5 whole entry, looked up): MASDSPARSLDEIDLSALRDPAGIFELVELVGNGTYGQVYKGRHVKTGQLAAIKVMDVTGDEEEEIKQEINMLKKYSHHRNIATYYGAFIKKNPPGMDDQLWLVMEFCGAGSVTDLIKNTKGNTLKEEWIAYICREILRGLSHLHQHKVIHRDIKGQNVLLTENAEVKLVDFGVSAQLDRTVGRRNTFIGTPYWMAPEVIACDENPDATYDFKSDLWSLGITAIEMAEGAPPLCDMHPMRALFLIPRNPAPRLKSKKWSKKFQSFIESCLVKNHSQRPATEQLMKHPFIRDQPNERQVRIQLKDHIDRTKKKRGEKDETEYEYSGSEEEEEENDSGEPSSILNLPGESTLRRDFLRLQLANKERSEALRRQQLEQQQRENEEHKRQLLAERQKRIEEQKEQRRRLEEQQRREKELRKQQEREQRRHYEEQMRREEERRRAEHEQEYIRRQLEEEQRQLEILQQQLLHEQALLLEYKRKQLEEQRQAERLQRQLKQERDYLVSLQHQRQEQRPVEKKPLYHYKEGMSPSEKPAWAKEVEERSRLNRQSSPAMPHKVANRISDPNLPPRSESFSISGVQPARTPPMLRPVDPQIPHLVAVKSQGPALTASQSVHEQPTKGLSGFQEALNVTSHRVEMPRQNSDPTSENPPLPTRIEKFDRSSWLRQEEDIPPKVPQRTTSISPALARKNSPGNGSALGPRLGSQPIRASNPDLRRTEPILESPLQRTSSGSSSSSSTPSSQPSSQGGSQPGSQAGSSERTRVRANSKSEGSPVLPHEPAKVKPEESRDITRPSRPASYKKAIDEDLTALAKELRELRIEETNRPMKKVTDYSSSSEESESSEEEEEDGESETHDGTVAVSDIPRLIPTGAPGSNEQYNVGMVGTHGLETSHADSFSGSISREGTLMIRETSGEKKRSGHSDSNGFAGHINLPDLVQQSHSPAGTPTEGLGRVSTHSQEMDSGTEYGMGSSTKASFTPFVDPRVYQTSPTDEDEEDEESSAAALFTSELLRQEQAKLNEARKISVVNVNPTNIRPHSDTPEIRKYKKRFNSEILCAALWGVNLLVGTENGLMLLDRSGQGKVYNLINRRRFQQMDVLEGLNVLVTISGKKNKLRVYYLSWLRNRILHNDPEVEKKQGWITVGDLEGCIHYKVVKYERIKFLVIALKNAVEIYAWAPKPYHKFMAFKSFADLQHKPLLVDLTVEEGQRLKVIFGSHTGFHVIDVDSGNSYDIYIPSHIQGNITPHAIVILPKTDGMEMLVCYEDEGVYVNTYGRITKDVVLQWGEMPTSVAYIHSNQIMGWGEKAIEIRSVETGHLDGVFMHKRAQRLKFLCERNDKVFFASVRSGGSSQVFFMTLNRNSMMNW
Chain of Activin receptor type-2A (Homo sapiens) (P27037 whole entry): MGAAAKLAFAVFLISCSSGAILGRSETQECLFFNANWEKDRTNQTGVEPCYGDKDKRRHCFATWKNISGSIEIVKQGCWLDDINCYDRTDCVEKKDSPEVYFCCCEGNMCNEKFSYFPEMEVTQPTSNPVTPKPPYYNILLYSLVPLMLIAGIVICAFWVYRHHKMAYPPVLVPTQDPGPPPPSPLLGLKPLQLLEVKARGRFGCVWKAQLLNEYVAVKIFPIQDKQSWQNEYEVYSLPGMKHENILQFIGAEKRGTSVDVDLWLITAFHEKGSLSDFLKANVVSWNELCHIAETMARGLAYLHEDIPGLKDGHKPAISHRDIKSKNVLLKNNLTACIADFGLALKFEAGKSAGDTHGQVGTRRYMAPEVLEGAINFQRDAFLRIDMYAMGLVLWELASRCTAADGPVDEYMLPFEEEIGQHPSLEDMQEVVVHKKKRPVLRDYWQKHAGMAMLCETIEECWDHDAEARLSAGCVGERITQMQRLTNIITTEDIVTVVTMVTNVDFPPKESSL

CCN(CC)CCCCNc1ncc2cc(-c3cc(OC)cc(OC)c3)c(NC(=O)NC(C)(C)C)nc2n1
% of control [1]: 100%

Cc1cc(F)c(C(=O)Nc2cccc(-c3nncn3C(C)C)n2)cc1-n1cnc(C2CC2)c1
% of control [2]: 78% | % of control [3]: 100% | % of control [4]: 85%

Cc1cnc(Nc2ccc(F)cc2Cl)nc1-c1c[nH]c(C(=O)N[C@H](CO)c2cccc(Cl)c2)c1
% of inhibition [5]: 3%

CN(C)C/C=C/C(=O)Nc1ccc(C(=O)N2CCCC(Nc3ncc(Cl)c(-c4c[nH]c5ccccc45)n3)C2)cc1 (configuration not stated)
% of control [6]: 70%

N#Cc1cccc(-c2c[nH]c3ncnc(N4CCOCC4)c23)c1
% of control [7]: 100%
